Assay results as given in a melting point compilation (Tetko et al.; mined from patent text by program, amines drawn as free bases though some values may be those of a salt).

Q: For `Cc1cccc(Nc2ccc(Nc3ncnc4cc(-c5ccccc5)sc34)cc2)c1`, which melting point is on record?
A: Its melting point is 170 to 171 °C.

Q: For `CCOC(=O)c1cn2c3c(c(F)c(F)c(F)c3c1=O)C(C(=O)OC(C)(C)C)(C(=O)OC(C)(C)C)CN2C`, which melting point is on record?
A: Its melting point is 169 to 173 °C.

Q: Which melting point does the source give for `Nc1cc(OCc2ccccc2)c2ncccc2c1` here?
A: Its melting point is 183 to 185 °C.

Q: Which melting point does the source give for `CC(C)(C)CCC/C(=C\c1ccc(C(=O)O)cc1)Cn1ccnc1` here?
A: Its melting point is 190 to 192 °C.

Q: Which melting point does the source give for `Cc1ccc(-c2ccc3nc(C)c(C(=O)Nc4ccc(CN(C)C5CCOCC5)cc4)cc3c2)cc1` here?
A: The melting point was 157 to 160 °C.

Q: For `CCCOc1nc2cccc(C(=O)OCC)c2n1Cc1ccc(-c2ccccc2-c2nnn[nH]2)cc1`, which melting point is on record?
A: Its melting point is 157 to 159 °C.

Q: For `O=C(O)c1cccc2c1CCc1cc(C(F)(F)F)ccc1S2`, which melting point is on record?
A: Its melting point is 178 to 180 °C.

Q: For `COc1ccc(OC)c2c1C(=O)c1ccc(C)cc1C2OC` (centres undefined), which melting point is on record?
A: Its melting point is 177 to 179 °C.

Q: For `C[C@H](CN1CC[C@@H](F)C1)NC(=O)c1c[nH]c2ncc(-c3nn(C)c4cc(Cl)ccc34)nc12`, which melting point is on record?
A: The melting point was 233 to 234 °C.

Q: For `CCCc1c(OCCCOc2ccc3c(c2CCC)OC(CCC(=O)O)CC3)ccc(C(C)=O)c1O` (centres undefined), which melting point is on record?
A: Its melting point is 109 to 110 °C.

Q: For `COc1cccc(C2CCCN(C(=O)Cc3cc4ccccc4o3)C2)c1` (centres undefined), which melting point is on record?
A: The melting point was 175 to 176 °C.

Q: With `Cc1nnc(-c2ccnc(NCc3cccnc3)c2)o1` as the compound, how does the melting point read?
A: The melting point was 139 to 140 °C.

Q: With `COC(=O)N1CCCSC1=C[N+](=O)[O-]` as the compound, how does the melting point read?
A: Its melting point is 93 to 95 °C.

Q: With `NC(=O)NN=Cc1ccc(Oc2ccc3c(c2)CCCC3)cc1` as the compound, how does the melting point read?
A: Its melting point is 202 to 204 °C.

Q: For `CCOC(=O)CCc1cn(C)nc1O`, which melting point is on record?
A: Its melting point is 89 to 91 °C.

Q: With `Cc1oc(-c2ccc(S(C)(=O)=O)cc2)c(Oc2ccc(Cl)cc2)c(=O)c1Br` as the compound, how does the melting point read?
A: Its melting point is 251 °C.

Q: Which melting point does the source give for `Cc1nc2cccc(S(=O)(=O)n3c(COC(C)(C)C(=O)O)cc4cc(Cl)ccc43)c2s1` here?
A: The melting point was 128 to 130 °C.

Q: With `Oc1ccc2c(-c3cccc4c(O)cccc34)noc2c1` as the compound, how does the melting point read?
A: Its melting point is 258 to 259 °C.

Q: With `CC(C)c1nc(CN(C)C(=O)N[C@H](C(=O)N[C@@H](Cc2ccccc2)C[C@H](O)[C@H](Cc2ccccc2)NC(=O)OCc2cnc(C(C)C)s2)C(C)C)cs1` as the compound, how does the melting point read?
A: The melting point was 64 to 66 °C.

Q: Which melting point does the source give for `C=CCN1C(=O)NC(C)CC1OCC` (centres undefined) here?
A: The melting point was 72 to 76 °C.

Q: With `O=C1N(Cc2noc(C(F)(F)F)n2)c2ccccc2C12COc1cc3c(cc12)OCCO3` (centres undefined) as the compound, how does the melting point read?
A: The melting point was 159 to 160 °C.

Q: Which melting point does the source give for `O=C(O)C1=Cc2cc(Cl)c(Oc3ccc4cc(Br)ccc4c3)cc2OC1C(F)(F)F` (centres undefined) here?
A: The melting point was 253 to 255 °C.

Q: For `CC=Cc1nc2c(C(F)(F)F)cccc2c(O)c1C(=O)Nc1nccs1`, which melting point is on record?
A: Its melting point is 265 °C.

Q: With `CSc1ccccc1-c1cc2c(ccn2C)c2c1C(=O)NC2=O` as the compound, how does the melting point read?
A: Its melting point is 272 to 274 °C.

Q: Which melting point does the source give for `Cc1cccc(-c2nc3cccnn3c2-c2ccnc(NC(=O)c3ccc(Cl)cc3)c2)c1` here?
A: Its melting point is 211 to 212 °C.

Q: Which melting point does the source give for `Cc1cc(OCc2coc(/C=C/c3ccc(Cl)cc3)n2)ccc1CS(=O)CCc1ccnn1C` (centres undefined) here?
A: The melting point was 169 to 171 °C.

Q: Which melting point does the source give for `CNc1ccc(C(=O)OC)c(F)n1` here?
A: The melting point was 156 to 159 °C.

Q: For `CC(C)CC(NC(=O)C1CCCCC1NC(=O)OCc1ccccc1)C(N)=O` (centres undefined), which melting point is on record?
A: The melting point was 188 to 190 °C.

Q: With `c1ccc(NCP(CNc2ccccc2)CNc2ccccc2)cc1` as the compound, how does the melting point read?
A: Its melting point is 87 to 88 °C.

Q: For `CC(C)c1ccc(C=O)c(=O)c(O)c1`, which melting point is on record?
A: The melting point was 76 °C.

Q: Which melting point does the source give for `Clc1cnc2c(-c3ccccc3)nc(-c3ccccc3)nc2c1` here?
A: The melting point was 120 to 121 °C.

Q: For `O=c1[nH][nH]c(=O)c2c(O)c3cccc(Cl)c3nc12`, which melting point is on record?
A: The melting point was > 390 °C.

Q: For `O=c1c2c(Cc3cccs3)n[nH]c2c2cccnc2n1-c1cccc(OC(F)(F)F)c1`, which melting point is on record?
A: The melting point was 234 to 238 °C.

Q: With `CC(C)(C)NC(=O)c1nn(-c2ccc(F)cc2Cl)c2c1C1CCC2C1` (centres undefined) as the compound, how does the melting point read?
A: The melting point was 122 to 124 °C.

Q: With `CN(CCN=C(NC#N)NCCSCc1csc(NC(=N)N)n1)CCC(c1ccccc1)c1ccccn1` (centres undefined) as the compound, how does the melting point read?
A: Its melting point is 115 to 116 °C.

Q: Which melting point does the source give for `CCCC[C@]1(CC)CS(=O)(=O)c2cc(OC)c(Br)cc2[C@@H](c2ccccc2)N1O` here?
A: The melting point was 202 to 204 °C.

Q: With `Cc1cc(CN2CCC(N(C)S(=O)(=O)c3ccc(Nc4nccc(Nc5ccc(F)c(F)c5)n4)cc3)CC2)no1` as the compound, how does the melting point read?
A: The melting point was 204 to 206 °C.

Q: With `Cc1[nH]c2ncnc(Nc3cccc(Cl)c3)c2c1C` as the compound, how does the melting point read?
A: The melting point was 239 to 240 °C.

Q: For `CCC1(CC)NC(=O)C(CC)(CC)N1OC(C)(C)C#N`, which melting point is on record?
A: The melting point was 125 to 130 °C.

Q: With `O=S(=O)(Nc1ccc(Cl)cc1-c1nc2ccc(S(=O)(=O)N3CCOCC3)cc2[nH]1)c1ccc(Cl)cc1` as the compound, how does the melting point read?
A: The melting point was 225 to 228 °C.

Q: Which melting point does the source give for `CCOC(=O)c1sc(CC)nc1C(F)(F)F` here?
A: Its melting point is 30 to 32 °C.

Q: With `O=C(CCN1CCN(c2ccc3c(c2)OCO3)CC1)c1csc2ccc(F)cc12` as the compound, how does the melting point read?
A: The melting point was 84 to 86 °C.

Q: With `CC1=C(c2ccncc2)CC(C)C(=O)N1` (centres undefined) as the compound, how does the melting point read?
A: Its melting point is 148 to 150 °C.

Q: Which melting point does the source give for `O=[N+]([O-])c1oc2ccc(CCO)cc2c1-c1ccc(CO)cc1` here?
A: Its melting point is 135 to 137 °C.

Q: Which melting point does the source give for `CCc1nc2c(cnn2CC)c(NC2CCOCC2)c1CNC(=O)c1cccc(C(=O)NCc2cc(Cl)cc(-c3cccc(CN4CC(C)NC(C)C4)c3)c2)c1` (centres undefined) here?
A: Its melting point is 112 to 114 °C.

Q: With `c1ccc(CC[C@H]2CN(Cc3ccccc3)CCN2Cc2ccccc2)cc1` as the compound, how does the melting point read?
A: Its melting point is 86 to 90 °C.

Q: With `COC(=O)c1cccn1-c1cc2[nH]c(=O)c(=O)n(C3CCCCC3)c2cc1[N+](=O)[O-]` as the compound, how does the melting point read?
A: Its melting point is 211 to 212 °C.

Q: Which melting point does the source give for `Cc1cccc2nc(O)n(C3CCC(=O)NC3=O)c(=O)c12` (centres undefined) here?
A: Its melting point is 373 to 375 °C.

Q: Which melting point does the source give for `COC(=O)c1cc(Cl)c(NC(C)=O)c2c1OCCC2` here?
A: Its melting point is 184 °C.
